Assay type in all cases: cell-based
In one assay the test system is E. Aerogenes. In words: Minimum inhibitory concentration, 18 hour Basal Salts test. The conditions noted are these: for MIC: Klebsiella aerogenes, 18 h. Here is the method: ^1 Minimum inhibitory concentration (MIC) for each compound against
the bacteria E. Aerogenes using an 18 hour Basal Salts test at pH 6 and p

For assay [1], the system named is Bacteria of the genera Bacillus, Flavobacterium, and Pseudomonas. In words: Bacterial adhesion to submerged slides in bioreactor, Gram Crystal Violet staining, visual biofilm score (Example 3). Set-up: scale not given here. The conditions noted are these: 100 ppm, acetone, 3 days, pH 7, average of four replicates, control 3-4. An excerpt: (§1) The following method effectively defines the ability of a chemical compound to inhibit bacterial adhesion, or attack the formation of existing attached microorganisms, on various types of surfaces. As an overview, bioreactors were constructed in which approximately 1 in.×3 in. slides (glass or stainless steel) were fixed to the edge of the bioreactor. The lower ends (approx. 2 in.) of the slides dipped into a bacterial growth medium (pH 7) within the bioreactor which contained a known concentration of the test chemical. Following inoculation with known bacterial species, the test solutions were stirred continuously for 3 days. Unless otherwise indicated in the results below, the medium within the bioreactor was turbid by the end of three days. […] A staining procedure was then used on the slides in order to determine the amount of bacteria attached to the surfaces of the slides.
(§2) The bioreactors comprised a 400 ml glass beaker over which a lid (cover from a standard 9 cm diameter glass petri dish) was placed. With the lid removed, slides of the material of choice were taped at one end with masking tape and suspended inside the bioreactor from the top edge of the beaker. This allows the slides to be submerged within the test medium. Typically, four slides (replicates) were uniformly spaced around the bioreactor. The score presented below are the average of the four replicates. A magnetic stirring bar was placed in the bottom of the unit, the lid positioned, and the bioreactor autoclaved. Two different types of material were used as slides, stainless steel as a metal and glass as a hydrophilic surface.
(§3) The liquid medium utilized in the bioreactors was described previously by Delaquis, et al., "Detachment Of Pseudomonas fluorescens From Biofilms On Glass Surfaces In Response To Nutrient Stress", Microbial Ecology 18:199-210, 1989. The composition of the medium was:
(§4) The medium was autoclaved and then allowed to cool. If a sediment formed in the autoclaved medium, the medium was resuspended by shaking before use.
(§5) Bacteria of the genera Bacillus, Flavobacterium, and Pseudomonas were isolated from a paper mill slime deposit and maintained in continuous culture. The test organisms were separately streaked onto plate count agar and incubated at 30° C. 24 hours. With a sterile cotton swab, portions of the colonies were removed and suspended in sterile water. The suspensions were mixed very well and were adjusted to an optical density of 0.858 (Bacillus), 0.625 (Flavobacterium), and 0.775 (Pseudomonas) at 686 nm.
(§6) Biofilm Production/Chemical Testing: To four separate bioreactors was added 200 ml of the sterile medium prepared above. Chemicals to be evaluated as biodispersants were first prepared as a stock solution (40 mg/2 ml) using either water or a 9:1 acetone:methanol mixture (ac/MeOH) as a solvent. A 1.0 ml aliquot of the stock solution was added to the bioreactor using moderate, continuous magnetic stirring. This provided an initial concentration of 100 ppm for the test compound. One bioreactor (Control) contains no test compound. Aliquots (0.5 ml) from each of the three bacterial suspensions were then introduced into each bioreactor. The bioreactors were then provided with continuous stirring for three days to allow for an increase in bacterial population and deposition of cells onto the surfaces of the slides.
After the test was completed, the slides were removed from the bioreactors and were positioned vertically to permit air drying. The degree of adhesion of bacteria to the test surface was then estimated using a staining procedure. The slides were briefly flamed in order to fix the cells to the surface, and then transferred for two minutes to a container of Gram Crystal Violet (DIFCO Laboratories, Detroit, Mich.). The slides were gently rinsed under running tap water, and then carefully blotted. The degree of bacterial adhesion was then determined by visual examination and subjective scoring of each slide. […]

Assay [2] shares this test system. In words: Quantitative method of evaluation of bacterial adhesion (crystal violet absorbance, % IBA), Example 4. The conditions noted are these: for inhibition at 100 ppm: 168 h; for Score (% IBA), inhibition of bacterial adhesion: 100 ppm.
Description: as §1, §2, §3, §4, §5, §6
The test method, construction of bioreactors, bacterial growth medium, preparation of bacterial inocula, and biofilm/chemical testing are the same as those in EXAMPLE 3.
After 48 h or 168 h (1 week) of incubation at 26°-28° C. the slides were removed from the bioreactors and were positioned vertically to […] using a staining procedure. The slides were briefly flamed in order to fix the cells to the surface, and then transferred for one minute to a container of Gram Crystal Violet (DIFCO Laboratories, Detroit, Mich.). […]

[3] abbreviates: glass slides, acetone, 168 h incubation at 26-28° C., 50% or greater considered effective.
Where [4] appears, read: stainless steel (SS) slides, acetone, 168 h incubation at 26-28° C., 50% or greater considered effective.

Where “and” joins values, the source holds several entries; their conditions need not be identical. Equal entries are not always repeated. Where two headings read alike, the source gives them in different places. Bounds are passed on as bounds.

As a reminder, the inhibition is the drop in the measured response relative to a control, in per cent.

Turning to `CCCCCCCCN(CCCCCCCC)CP(=O)(O)O` [g, dioctyl amino methyl phosphonic acid], the MIC in the assay on E. Aerogenes (pH 6, pH 6, read-out: Minimum inhibitory concentration (MIC)) was greater than 100 µg/mL. Further, the “Score (biofilm score, bacterial adhesion)” value in assay [1] (glass slides) turned out to be 2.0. Moreover, the inhibition at 100 ppm in assay [2] (glass slides, acetone, 168 h incubation at 26-28° C., 50% or greater considered effective, read-out: Score (% IBA), inhibition of bacterial adhesion) turned out to be 78%; in assay [2] (stainless steel (SS) slides, acetone, 168 h incubation at 26-28° C., 50% or greater considered effective, read-out: Score (% IBA), inhibition of bacterial adhesion), 67%.

Regarding hexyl amino methyl phosphonic acid, the “Minimum inhibitory concentration (MIC)” value with E. Aerogenes (pH 6) is greater than 100; in the assay on E. Aerogenes (pH 8) it was greater than 500. Moreover, the “Score (biofilm score, bacterial adhesion)” value in assay [1] (glass slides) is 3.0; in assay [1] (stainless steel (SS) slides), 1.0 and 2.0. For the same molecule, the “Score (% IBA), inhibition of bacterial adhesion” value (from here on “Score (% IBA), inhibition”) was found to be 36 % IBA in assay [2] (setting [3]) and 42 % IBA in assay [2] (setting [4]).

On to decyl amino methyl phosphonic acid, for which the “Minimum inhibitory concentration (MIC)” value was greater than 100 in the assay on E. Aerogenes (pH 6) and greater than 500 in the assay on E. Aerogenes (pH 8). In addition, the “Score (biofilm score, bacterial adhesion)” value is 2.25 in assay [1] (glass slides); 1.25 and 2.3 in assay [1] (stainless steel (SS) slides). The “Score (% IBA), inhibition” value in assay [2] (setting [3]) was found to be 5 % IBA; in assay [2] (setting [4]), 62 % IBA.

For `O=P(O)(O)CN1CCOCC1` [e], the MIC in the assay on E. Aerogenes (pH 8, read-out: Minimum inhibitory concentration (MIC), pH 8) is greater than 500 µg/mL. Further, the “Score (biofilm score, bacterial adhesion)” value was 3 in assay [1] (glass slides); 3 and 2.3 in assay [1] (stainless steel (SS) slides). Moreover, the inhibition at 100 ppm in assay [2] (read-out: Score (% IBA), inhibition of bacterial adhesion, glass slides, acetone, 168 h incubation at 26-28° C., 50% or greater considered effective) was 52%; in assay [2] (read-out: Score (% IBA), inhibition of bacterial adhesion, stainless steel (SS) slides, acetone, 168 h incubation at 26-28° C., 50% or greater considered effective), 33%.

Turning to “octadecyl amino methyl phosphonic acid [f]”, the “Minimum inhibitory concentration (MIC)” value is greater than 100 with E. Aerogenes (pH 6) and greater than 500 with E. Aerogenes (pH 8). For the same molecule, the “Score (biofilm score, bacterial adhesion)” value in assay [1] (stainless steel (SS) slides) was 2.25 and 2.70. Further, the “Score (% IBA), inhibition” value in assay [2] (setting [3]) is on record as 81 % IBA; in assay [2] (setting [4]), 39 % IBA.

As for dodecyl amino methyl phosphonic acid, the “Minimum inhibitory concentration (MIC)” value was greater than 100 with E. Aerogenes (pH 6) and greater than 500 in the assay on E. Aerogenes (pH 8). The “Score (biofilm score, bacterial adhesion)” value in assay [1] (stainless steel (SS) slides) is 3 and 4. The “Score (% IBA), inhibition” value is given as 43 % IBA in assay [2] (setting [3]) and 54 % IBA in assay [2] (setting [4]).

butyl amino methyl phosphonic acid: in the assay with E. Aerogenes (pH 8), the “Minimum inhibitory concentration (MIC)” value was greater than 500. Moreover, the figures for the “Score (% IBA), inhibition” value in assay [2] (setting [3]) and in assay [2] (setting [4]) were 21 % IBA and 36 % IBA, respectively.

Values taken from patent US5888405A, “Methods for controlling biofouling using amino methyl phosphonic acids” (Buckman Laboratories International Inc., priority 1997, dated 1999).
